Source: ChEMBL document CHEMBL6083190, “Synthesis and mechanistic study of Aβ42 C-terminus domain derived tetrapeptides that inhibit Alzheimer's Aβ-aggregation-induced neurotoxicity” (Bioorg Med Chem Lett, 2024)
Activity calls are given as the source filed them. No cut-off for these calls is given here. Non-standard residues stand in square brackets, D forms with d. Residues, ends and D or L forms follow the SMILES beside them. ξ: configuration not given here. Tle = CC(C)(C)[C@H](N)C(=O)O; ξOic = O=C(O)C1CC2CCCCC2N1; Aib = CC(C)(N)C(=O)O

Key:
[1] = Inhibition of amyloid beta-induced neurotoxicity in rat PC-12 cells at 2 uM by MTT assay relative to control; type: functional
[2] = Inhibition of amyloid beta-induced neurotoxicity in rat PC-12 cells at 4 uM by MTT assay relative to control; type: functional
[3] = Inhibition of amyloid beta-induced neurotoxicity in rat PC-12 cells at 10 uM by MTT assay relative to control; type: functional
PC-12 [4] = assay: Protection against amyloid beta-induced neurotoxicity in rat PC-12 cells assessed as cell viability at 2 uM by MTT assay (reference value: 63.6 %); type: functional; conditions: read-out: Activity
PC-12 [5] = assay: Protection against amyloid beta-induced neurotoxicity in rat PC-12 cells assessed as cell viability at 10 uM by MTT assay (reference value: 63.6 %); type: functional; conditions: read-out: Activity
PC-12 [6] = assay: Protection against amyloid beta-induced neurotoxicity in rat PC-12 cells assessed as cell viability at 4 uM by MTT assay (reference value: 63.6 %); type: functional; conditions: read-out: Activity
[7] = molecular target: Amyloid-beta precursor protein (Homo sapiens) (UniProt P05067); assay: Inhibition of amyloid beta (1 to 42) (unknown origin) self aggregation by ThT fluorescence assay relative to control; conditions: concentration not given here
[8] = molecular target: Amyloid-beta precursor protein (Homo sapiens) (UniProt P05067); assay: Inhibition of amyloid beta (1 to 42) (unknown origin) self aggregation at 2 to 10 uM by ThT fluorescence assay; conditions: dose 2-10 µM
[9] = molecular target: Amyloid-beta precursor protein (Homo sapiens) (UniProt P05067); assay: Inhibition of amyloid beta (1 to 42) (unknown origin) self-aggregation assessed as absence of fibrillar aggregates at 1:5 amyloid-beta:compound concentration ratio measured immediately by scanning transmission electron microscopic analysis
[10] = molecular target: Amyloid-beta precursor protein (Homo sapiens) (UniProt P05067); assay: Inhibition of amyloid beta (1 to 42) (unknown origin) self-aggregation assessed as absence of fibrillar aggregates at 1:5 amyloid-beta:compound concentration ratio incubated for 72 hrs by scanning transmission electron microscopic analysis
[11] = molecular target: Amyloid-beta precursor protein (Homo sapiens) (UniProt P05067); assay: Inhibition of amyloid beta (1 to 42) (unknown origin) self-aggregation assessed as absence of fibrillar aggregates at 1:5 amyloid-beta:compound concentration ratio incubated for 72 hrs by high-resolution transmission electron microscopic analysis
[12] = molecular target: Amyloid-beta precursor protein (Homo sapiens) (UniProt P05067); assay: Inhibition of amyloid beta (1 to 42) (unknown origin) self-aggregation assessed as absence of fibrillar aggregates at 1:5 amyloid-beta:compound concentration ratio measured immediately by high-resolution transmission electron microscopic analysis

Chain of Amyloid-beta precursor protein (Homo sapiens) (P05067 whole entry): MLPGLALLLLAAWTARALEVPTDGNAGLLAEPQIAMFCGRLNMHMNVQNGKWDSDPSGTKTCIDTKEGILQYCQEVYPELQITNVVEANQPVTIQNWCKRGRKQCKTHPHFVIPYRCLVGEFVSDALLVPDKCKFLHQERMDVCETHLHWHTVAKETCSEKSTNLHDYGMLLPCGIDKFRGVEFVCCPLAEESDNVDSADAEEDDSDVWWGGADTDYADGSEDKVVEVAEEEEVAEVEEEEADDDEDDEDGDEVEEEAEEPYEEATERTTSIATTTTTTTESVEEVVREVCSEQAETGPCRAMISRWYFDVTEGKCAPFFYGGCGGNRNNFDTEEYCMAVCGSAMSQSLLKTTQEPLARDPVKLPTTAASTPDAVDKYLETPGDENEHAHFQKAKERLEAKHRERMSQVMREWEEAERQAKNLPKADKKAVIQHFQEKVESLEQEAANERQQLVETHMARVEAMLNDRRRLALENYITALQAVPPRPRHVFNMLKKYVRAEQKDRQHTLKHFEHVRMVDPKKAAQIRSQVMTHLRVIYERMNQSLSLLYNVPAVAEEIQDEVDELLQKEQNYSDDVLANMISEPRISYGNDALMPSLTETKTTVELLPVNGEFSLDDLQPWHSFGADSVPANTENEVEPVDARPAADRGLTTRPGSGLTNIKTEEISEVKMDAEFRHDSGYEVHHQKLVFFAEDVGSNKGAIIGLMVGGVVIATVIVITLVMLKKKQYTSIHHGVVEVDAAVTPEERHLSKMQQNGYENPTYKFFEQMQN

inhibition [7] [%] | inhibition [8] | inhibition [9] | inhibition [12] | SMILES | inhibition at 2 µM [1] [%] | inhibition at 4 µM [2] [%] | inhibition at 10 µM [3] [%] | viability at 2 µM (PC-12 [4]) [%] | viability at 10 µM (PC-12 [5]) [%] | viability at 4 µM (PC-12 [6]) [%] | inhibition [10] | inhibition [11]
 |  |  |  | CC[C@@H](C)[C@@H](NC(=O)[C@H](NC(=O)[C@H](N)C(C)C)C(C)C)C(=O)N[C@H](C)C(N)=O | 27 | 6 | 1 | 73.3 | 64.1 | 65.6 |  | 
 |  |  |  | CC[C@H](C)[C@H](NC(=O)[C@@H](NC(=O)[C@@H](N)C(C)(C)C)C(C)C)C(=O)N[C@@H](C)C(N)=O (H-[Tle]VIA-NH2) | 45 | 0 | 3 | 79.9 | 64.6 | 61.1 |  | 
 |  |  |  | CC[C@H](C)[C@H](NC(=O)[C@H](C)N)C(=O)N[C@H](C(=O)N[C@H](C(N)=O)C(C)C)C(C)C | 0 | 15 | 0 | 55.2 | 58.3 | 69 |  | 
> 50 |  |  |  | CC[C@H](C)[C@H](NC(=O)[C@@H](NC(=O)[C@@H](N)C(C)C)C(C)C)C(=O)N[C@@H](Cc1ccccc1)C(N)=O (H-VVIF-NH2) | 60 | 55 | 9 | 85.6 | 66.9 | 83.6 |  | 
 | Active |  |  | CC[C@H](C)[C@H](NC(=O)[C@@H](NC(=O)[C@@H](N)C(C)C)C(C)(C)C)C(=O)N[C@@H](C)C(N)=O (H-V[Tle]IA-NH2) | 39 | 42 | 31 | 77.7 | 74.9 | 78.8 |  | 
 | Active |  |  | CC[C@H](C)[C@H](NC(=O)[C@@H](NC(=O)C1Cc2ccccc2CN1)C(C)C)C(=O)N[C@@H](C)C(N)=O (stereo partly specified) | 14 | 0 | 0 | 68.8 | 61.8 | 62.4 |  | 
 |  |  |  | CC[C@H](C)[C@H](NC(=O)[C@@H](NC(=O)[C@@H](N)C(C)C)C(C)C)C(=O)N[C@@H](C)C(N)=O | 0 | 0 | 0 | 60.7 | 63.4 | 59.4 |  | 
 | Active |  |  | CC[C@H](C)[C@H](NC(=O)[C@H](C)N)C(=O)N[C@H](C(=O)NC(C)(C)C(N)=O)C(C)C (H-AIV[Aib]-NH2) | 32 | 9 | 20 | 75.3 | 70.9 | 67 |  | 
> 50 | Active |  |  | CC[C@H](C)[C@H](NC(=O)C1Cc2ccccc2CN1C(=O)[C@@H](N)C(C)C)C(=O)N[C@@H](C)C(N)=O (stereo partly specified) | 87 | 46 | 34 | 95.4 | 76.1 | 80.3 |  | 
 |  |  |  | CC[C@H](C)[C@H](NC(=O)C1CC2CCCCC2N1C(=O)[C@@H](N)C(C)C)C(=O)N[C@@H](C)C(N)=O (stereo partly specified) (H-V[ξOic]IA-NH2) | 1 | 41 | 0 | 64.1 | 62.1 | 78.6 |  | 
 |  |  |  | CC[C@@H](C)[C@@H](NC(=O)[C@@H](C)N)C(=O)N[C@@H](C(=O)N[C@@H](C(N)=O)C(C)C)C(C)C | 14 | 0 | 30 | 68.7 | 74.6 | 63.3 |  | 
 |  |  |  | CC[C@H](C)[C@H](NC(=O)[C@H](N)Cc1ccccc1)C(=O)N[C@H](C(=O)N[C@H](C(N)=O)C(C)C)C(C)C | 13 | 0 | 9.3 | 68.4 | 67 | 54.7 |  | 
 |  | Not active; Small Aggregates Observed | Not active; Small Aggregates Observed | CC[C@H](C)[C@H](NC(=O)[C@@H](NC(=O)C1CC2CCCCC2N1)C(C)C)C(=O)N[C@@H](C)C(N)=O (stereo partly specified) | 5 | 0 | 0 | 65.3 | 57.7 | 63.3 | Not active; Formation Of Small, Non-Fibrillar Like Amorphous Aggregates Observed | Not active; Formation Of Small, Non-Fibrillar Like Amorphous Aggregates Observed
 | Active |  |  | CC[C@H](C)[C@H](NC(=O)[C@H](C)N)C(=O)N[C@H](C(=O)N[C@H](Cc1ccccc1)C(N)=O)C(C)C | 0 | 15 | 35 | 55.2 | 76.4 | 69.1 |  | 
 |  |  |  | CC(C)[C@H](NC(=O)[C@@H](NC(=O)C(C)(C)NC(=O)[C@H](C)N)C(C)C)C(N)=O (H-A[Aib]VV-NH2) | 0 | 32 | 0 | 52.1 | 59.6 | 75.3 |  | 
